Results reported in ChEMBL document CHEMBL5291721, “A preclinical secondary pharmacology resource illuminates target-adverse drug reaction associations of marketed drugs” (Nat Commun, 2023).

Columns and labels:
[1] = target: T1, Alpha-1A adrenergic receptor (Homo sapiens, UniProt P35348); format: functional, cell-based
T1 sequence (P35348 whole entry): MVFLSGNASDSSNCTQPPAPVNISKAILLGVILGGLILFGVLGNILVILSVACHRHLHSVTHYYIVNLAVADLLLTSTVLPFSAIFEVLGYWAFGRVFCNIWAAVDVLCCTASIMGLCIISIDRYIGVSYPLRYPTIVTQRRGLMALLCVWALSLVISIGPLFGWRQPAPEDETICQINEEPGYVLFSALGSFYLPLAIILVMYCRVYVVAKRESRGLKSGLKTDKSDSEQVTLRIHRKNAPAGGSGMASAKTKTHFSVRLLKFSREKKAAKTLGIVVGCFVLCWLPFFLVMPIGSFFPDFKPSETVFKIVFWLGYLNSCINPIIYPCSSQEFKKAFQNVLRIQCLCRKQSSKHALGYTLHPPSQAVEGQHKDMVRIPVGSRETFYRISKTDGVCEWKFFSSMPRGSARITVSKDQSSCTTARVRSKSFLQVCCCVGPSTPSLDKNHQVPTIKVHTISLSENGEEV

D(1A) dopamine receptor = D(1A) dopamine receptor (Homo sapiens, UniProt P21728); format: functional, cell-based
Sequence of D(1A) dopamine receptor (P21728 whole entry): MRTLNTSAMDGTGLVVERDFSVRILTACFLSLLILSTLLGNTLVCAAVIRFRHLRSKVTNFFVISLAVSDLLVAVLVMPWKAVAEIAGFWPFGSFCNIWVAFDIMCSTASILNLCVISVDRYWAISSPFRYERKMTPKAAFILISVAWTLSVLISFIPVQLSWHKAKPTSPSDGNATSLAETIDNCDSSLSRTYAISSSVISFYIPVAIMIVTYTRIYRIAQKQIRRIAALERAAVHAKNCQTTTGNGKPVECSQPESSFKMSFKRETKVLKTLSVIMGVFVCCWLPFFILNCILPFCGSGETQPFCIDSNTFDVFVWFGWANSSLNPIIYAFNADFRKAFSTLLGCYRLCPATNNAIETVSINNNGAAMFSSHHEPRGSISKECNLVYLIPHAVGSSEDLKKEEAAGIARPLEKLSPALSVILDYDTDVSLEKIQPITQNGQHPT

[2] = target: T2, Alpha-2C adrenergic receptor (Homo sapiens, UniProt P18825); format: functional
T2 sequence (P18825 whole entry): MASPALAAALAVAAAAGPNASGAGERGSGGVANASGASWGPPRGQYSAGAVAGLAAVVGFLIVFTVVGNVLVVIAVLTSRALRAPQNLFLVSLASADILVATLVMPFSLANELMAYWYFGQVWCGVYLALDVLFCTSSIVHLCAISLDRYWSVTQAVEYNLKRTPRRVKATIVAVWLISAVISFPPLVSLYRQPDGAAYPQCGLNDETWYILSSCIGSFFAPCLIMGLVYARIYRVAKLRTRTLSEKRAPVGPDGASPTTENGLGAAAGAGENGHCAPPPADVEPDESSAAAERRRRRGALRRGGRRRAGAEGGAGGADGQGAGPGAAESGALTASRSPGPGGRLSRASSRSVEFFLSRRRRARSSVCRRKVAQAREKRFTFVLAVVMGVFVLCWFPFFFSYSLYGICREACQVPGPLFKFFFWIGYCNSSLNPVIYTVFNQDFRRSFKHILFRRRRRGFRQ

[3] = target: Kappa-type opioid receptor (Homo sapiens, UniProt P41145)
Sequence of Kappa-type opioid receptor (P41145 whole entry): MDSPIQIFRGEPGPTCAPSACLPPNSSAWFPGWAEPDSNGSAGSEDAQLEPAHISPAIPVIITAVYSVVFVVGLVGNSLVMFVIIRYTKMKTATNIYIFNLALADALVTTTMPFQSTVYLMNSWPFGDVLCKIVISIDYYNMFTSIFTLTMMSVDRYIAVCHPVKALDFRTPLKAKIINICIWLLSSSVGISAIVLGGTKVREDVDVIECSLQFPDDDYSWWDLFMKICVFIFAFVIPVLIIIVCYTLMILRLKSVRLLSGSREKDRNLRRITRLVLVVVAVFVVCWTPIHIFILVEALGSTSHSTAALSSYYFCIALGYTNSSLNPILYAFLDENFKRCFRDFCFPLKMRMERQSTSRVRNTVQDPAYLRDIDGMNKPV

[4] = target: T3, Neuropeptide Y receptor type 1 (Homo sapiens, UniProt P25929); details: read-out: AC50
T3 sequence (P25929 whole entry): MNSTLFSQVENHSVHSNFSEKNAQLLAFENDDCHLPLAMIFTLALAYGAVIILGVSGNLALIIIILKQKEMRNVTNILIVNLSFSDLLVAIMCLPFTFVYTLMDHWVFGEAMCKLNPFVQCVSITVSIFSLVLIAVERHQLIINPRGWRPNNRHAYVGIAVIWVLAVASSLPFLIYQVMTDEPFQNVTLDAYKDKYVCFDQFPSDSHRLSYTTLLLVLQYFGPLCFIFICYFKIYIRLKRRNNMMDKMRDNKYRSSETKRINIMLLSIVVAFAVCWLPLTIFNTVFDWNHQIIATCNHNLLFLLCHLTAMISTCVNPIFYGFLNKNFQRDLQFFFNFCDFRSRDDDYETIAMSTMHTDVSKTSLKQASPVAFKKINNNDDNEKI

[5] = target: T4, Prostaglandin G/H synthase 1 (Rattus norvegicus, UniProt Q63921); format: functional
T4 sequence (Q63921 whole entry): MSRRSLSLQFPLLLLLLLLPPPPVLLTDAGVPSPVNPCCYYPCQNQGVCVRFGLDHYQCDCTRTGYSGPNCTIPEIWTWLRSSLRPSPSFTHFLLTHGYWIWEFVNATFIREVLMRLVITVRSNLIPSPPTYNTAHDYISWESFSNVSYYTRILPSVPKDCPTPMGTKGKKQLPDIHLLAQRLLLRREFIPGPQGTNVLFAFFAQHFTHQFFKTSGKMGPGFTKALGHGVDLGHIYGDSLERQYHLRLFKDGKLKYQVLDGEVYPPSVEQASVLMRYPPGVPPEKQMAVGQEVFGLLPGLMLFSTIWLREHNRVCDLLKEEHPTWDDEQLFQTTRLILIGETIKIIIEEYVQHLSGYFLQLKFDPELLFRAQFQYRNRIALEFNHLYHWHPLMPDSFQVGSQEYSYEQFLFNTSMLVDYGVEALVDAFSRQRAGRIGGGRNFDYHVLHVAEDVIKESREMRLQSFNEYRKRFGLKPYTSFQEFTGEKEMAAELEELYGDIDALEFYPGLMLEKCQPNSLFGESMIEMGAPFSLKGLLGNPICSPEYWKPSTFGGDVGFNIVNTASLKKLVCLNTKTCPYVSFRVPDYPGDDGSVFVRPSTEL

Melanocortin receptor 3 = Melanocortin receptor 3 (Homo sapiens, UniProt P41968)
Sequence of Melanocortin receptor 3 (P41968 whole entry): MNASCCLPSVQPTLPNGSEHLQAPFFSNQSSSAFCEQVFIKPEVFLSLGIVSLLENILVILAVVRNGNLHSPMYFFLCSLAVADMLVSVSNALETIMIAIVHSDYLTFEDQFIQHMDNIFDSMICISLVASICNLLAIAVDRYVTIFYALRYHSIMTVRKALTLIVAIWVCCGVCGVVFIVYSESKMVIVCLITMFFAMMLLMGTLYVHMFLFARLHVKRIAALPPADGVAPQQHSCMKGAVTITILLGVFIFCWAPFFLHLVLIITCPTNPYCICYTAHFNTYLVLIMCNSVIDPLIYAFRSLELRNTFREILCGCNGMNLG

[6] = target: Sodium-dependent dopamine transporter (Homo sapiens, UniProt Q01959)
Sequence of Sodium-dependent dopamine transporter (Q01959 whole entry): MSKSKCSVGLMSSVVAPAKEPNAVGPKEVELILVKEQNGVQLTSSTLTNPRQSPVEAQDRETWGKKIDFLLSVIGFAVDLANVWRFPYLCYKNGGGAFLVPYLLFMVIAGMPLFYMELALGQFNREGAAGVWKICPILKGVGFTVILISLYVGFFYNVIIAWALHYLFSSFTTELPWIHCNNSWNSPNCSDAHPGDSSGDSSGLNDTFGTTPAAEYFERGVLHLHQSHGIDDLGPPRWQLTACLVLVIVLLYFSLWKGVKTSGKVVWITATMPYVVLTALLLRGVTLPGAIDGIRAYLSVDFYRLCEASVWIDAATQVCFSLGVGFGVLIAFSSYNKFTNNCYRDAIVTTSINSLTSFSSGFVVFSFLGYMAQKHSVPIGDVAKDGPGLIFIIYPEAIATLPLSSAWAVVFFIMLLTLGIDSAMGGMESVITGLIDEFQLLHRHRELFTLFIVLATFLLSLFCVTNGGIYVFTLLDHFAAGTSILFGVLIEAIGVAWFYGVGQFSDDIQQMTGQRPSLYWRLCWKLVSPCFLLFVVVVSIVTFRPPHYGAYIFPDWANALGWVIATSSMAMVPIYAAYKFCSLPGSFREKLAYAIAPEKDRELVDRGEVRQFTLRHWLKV
Note: assay procedure not described here.

Structure (SMILES)	AC50 [1] [µM]	AC50 (D(1A) dopamine receptor) [µM]	AC50 [2] [µM]	AC50 [3] [µM]	AC50 [4] [µM]	AC50 [5] [µM]	AC50 (Melanocortin receptor 3) [µM]	AC50 [6] [µM]
CN(CC1(C)CCCO1)S(=O)(=O)c1ccc(Cl)c(S(N)(=O)=O)c1 (configuration not stated) [MEFRUSIDE]	> 30	> 30	> 30	> 30				
CO[C@H]1/C=C/O[C@@]2(C)Oc3c(C)c(O)c4c(O)c(c(/C=N/N5CCN(C)CC5)c(O)c4c3C2=O)NC(=O)/C(C)=C\C=C\[C@H](C)[C@H](O)[C@@H](C)[C@@H](O)[C@@H](C)[C@H](OC(C)=O)[C@@H]1C [RIFAMPIN]	> 30	> 30	11	> 30	22.5	> 30	> 30	20
N[C@@H](CC(=O)N1CCn2c(nnc2C(F)(F)F)C1)Cc1cc(F)c(F)cc1F [SITAGLIPTIN]	> 30	> 30	> 30	> 10	> 10	> 30	> 30	> 30
O=C1C(CC[S+]([O-])c2ccccc2)C(=O)N(c2ccccc2)N1c1ccccc1 (configuration not stated) [SULFINPYRAZONE]	> 30	> 10	> 10	> 10	> 10	> 10	> 10	> 10
CC(N)C12CC3CC(CC(C3)C1)C2 (configuration not stated) [RIMANTADINE]		> 10	> 10	> 10	> 10	> 10	> 10	> 10
COc1cc2nc(N3CCN(C(=O)C4CCCO4)CC3)nc(N)c2cc1OC (configuration not stated) [TERAZOSIN]		> 10			> 30	> 30	> 30	> 10
CC(C)N(CCC(C(N)=O)(c1ccccc1)c1ccccn1)C(C)C (configuration not stated) [DISOPYRAMIDE]	> 30	> 10	> 10	6.73	> 30	13.6	> 30	> 30
CN(C)CCC[C@@]1(c2ccc(F)cc2)OCc2cc(C#N)ccc21 [ESCITALOPRAM]			> 30	> 30	> 30	> 30	> 30	
Nc1ccc(S(=O)(=O)Nc2nccs2)cc1 [SULFATHIAZOLE]	> 30	> 10	> 10	> 10	> 30	> 30	> 30	> 10
C[C@H](CCC(=O)O)[C@H]1CC[C@H]2[C@@H]3[C@@H](O)C[C@@H]4C[C@H](O)CC[C@]4(C)[C@H]3CC[C@]12C [URSODIOL]	> 30	> 30	> 30			> 30	> 30	> 30
CN1C[C@H](C(=O)N[C@]2(C)O[C@@]3(O)[C@@H]4CCCN4C(=O)[C@H](Cc4ccccc4)N3C2=O)C=C2c3cccc4[nH]cc(c34)C[C@H]21 [ERGOTAMINE]	3.1	0.59	0.14			26	> 30	> 30
C#C[C@]1(O)CC[C@H]2[C@@H]3CCC4=CC(=O)CC[C@@H]4[C@H]3C(=C)C[C@@]21CC [ETONOGESTREL]	> 30	> 30	> 30	> 30				
